Reference: patent US5968910A, “Compositions containing two or three inhibitors of different HIV reverse transcriptases” (priority 1994, dated 1999)
≈ marks a conversion by molar mass, not a printed value. Read-outs that look alike come from different tables or passages of the source.

Columns and labels:
[1] = system: HIV-1/TIBO R82150 (100-Ile); conditions: background, Balzarini I/II; cited from earlier work
HIV-1/I(0.1) 103-Asn = experiment: Sensitivity of mutant HIV-1 strain in CEM cell cultures; format: cell-based; conditions: Human immunodeficiency virus 1, CCRF-CEM; Table 5; read-out: EC50
Outline: (§1)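 Syncytium formation read out after 4 days at 37° C. Cultures: CEM cells, 250,000/ml, infected at 100 50% cell culture infective doses/ml and added to compound dilutions.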

HIV-1/Nev (106-Ala) = experiment: as above; format: cell-based; conditions: Human immunodeficiency virus 1, CCRF-CEM; CEM cells, Table 1; read-out: 50% Effective Concentration
Outline: as §1

HIV-1/Pyr (181-Cys) = experiment: as above; format: cell-based; conditions: Human immunodeficiency virus 1, CCRF-CEM; CEM cells, Table 1; read-out: 50% Effective Concentration
Outline: as §1

[2] = system: HIV-1/TSAO-m^3 T (138-Lys); experiment: as above; format: cell-based; conditions: Human immunodeficiency virus 1, CCRF-CEM; CEM cells, Table 1; read-out: 50% Effective Concentration
Outline: as §1

[3] = system: HIV-1/TIBO R82150 (100-Ile); experiment: as above; format: cell-based; conditions: Human immunodeficiency virus 1, CCRF-CEM; CEM cells, Table 1; read-out: 50% Effective Concentration
Outline: as §1

[4] = system: HIV-1/TIBO R82913 (103-Asn); experiment: as above; format: cell-based; conditions: Human immunodeficiency virus 1, CCRF-CEM; CEM cells, Table 1; read-out: 50% Effective Concentration
Outline: as §1

HIV-1/V(0.5) 103-Asn = experiment: as above; format: cell-based; conditions: Human immunodeficiency virus 1, CCRF-CEM; Table 5; read-out: EC50
Outline: as §1

HIV-1/B 101Glu = experiment: as above; format: cell-based; conditions: Human immunodeficiency virus 1, CCRF-CEM; Table 5; read-out: EC50
Outline: as §1

HIV-1/II(0.1) 100-Ile = experiment: as above; format: cell-based; conditions: Human immunodeficiency virus 1, CCRF-CEM; Table 5; read-out: EC50
Outline: as §1

HIV-1/IV(0.1) 103-Thr = experiment: as above; format: cell-based; conditions: Human immunodeficiency virus 1, CCRF-CEM; Table 5; read-out: EC50
Outline: as §1

[5] = system: HIV-1/V(0.1) 101-Ile + 141-Glu; experiment: as above; format: cell-based; conditions: Human immunodeficiency virus 1, CCRF-CEM; Table 5; read-out: EC50
Outline: as §1

HIV-1/III(0.1) 103-Asn = experiment: as above; format: cell-based; conditions: Human immunodeficiency virus 1, CCRF-CEM; Table 5; read-out: EC50
Outline: as §1

HIV-1 RT (WT) = HIV-1 RT (WT) (Human immunodeficiency virus type 1 group M subtype B, UniProt P03366); experiment: biochemical; conditions: IC50, anti-HIV-1 RT (WT) activity
Procedure: The reaction mixture (50 μl) contained 50 mM Tris.HCl, pH 7.8, 5 mM dithiothreitol, […] glutathione, 500 μM EDTA, 150 mM KCl, 5 mM MgCl2, 1.25 μg of bovine serum albumin, a fixed concentration of the labeled substrate [2,8-^3 H]dGTP (2.95 μM, 2 μCi), a fixed concentration of the template/primer poly(C).oligo(dG) (0.1 mM), 0.06% Triton X-100, 5 μl of inhibitor solution [containing various concentrations (5-fold dilutions) of the test compounds], and 5 μl of the RT preparation. The reaction mixtures were incubated at 37° C. for 30 min, at which time 100 μl of calf thymus DNA (150 μg/ml), 2 ml of Na4 P2 07 (0.1 M in 1M HCl), and 2 ml of trichloroacetic acid (10%, v/v) were added. The solutions were kept on ice for 30 min, after which the acid-insoluble material was washed and analyzed for radioactivity.
Compounds I, III, IV and V were evaluated for their inhibitory effect on recombinant HIV-1 RT.

HIV-1(IIIB) (WT) = experiment: microbe, parasite or virus in culture; format: cell-based; conditions: Human immunodeficiency virus 1, IIIB, CCRF-CEM
Outline: as §1

[6] = CEM cells, Table 1, read-out: 50% Effective Concentration
[7] = HIV-1 (III8), Table 5, read-out: EC50

SMILES | resistance of HIV-1 strains containing the 100 Leu→Ile mutation in their RT [1] | EC50 (HIV-1/I(0.1) 103-Asn) [µg/mL] | EC50 (HIV-1/Nev (106-Ala)) [µg/mL] | EC50 (HIV-1/Pyr (181-Cys)) [µg/mL] | EC50 [2] [µg/mL] | EC50 [3] [µg/mL] | EC50 [4] [µg/mL] | EC50 (HIV-1/V(0.5) 103-Asn) [µg/mL] | EC50 (HIV-1/B 101Glu) [µg/mL] | EC50 (HIV-1/II(0.1) 100-Ile) [µg/mL] | EC50 (HIV-1/IV(0.1) 103-Thr) [µg/mL] | EC50 [5] [µg/mL] | EC50 (HIV-1/III(0.1) 103-Asn) [µg/mL] | IC50 (HIV-1 RT (WT)) [nM] | EC50 (HIV-1(IIIB) (WT); [6]) [µg/mL] | EC50 (HIV-1(IIIB) (WT); [7]) [µg/mL]
CC(C)=CCN1Cc2cccc3[nH]c(=S)n(c23)C[C@@H]1C [Compound R82150] | resistant | – | – | – | – | – | – | – | – | – | – | – | – | – | – | –
CCc1cc(NCc2nc3c(Cl)ccc(Cl)c3o2)c(O)nc1C [Pyridinone L-697,661, 3-{[(4,7-dichloro-1,3-benzoxazol-2-yl)methyl]amino}-5-ethyl-6-methylpyridin-2(1H)-one, reference compound] | – | 0.3 (≈ 0.852 µM) | 0.24 (≈ 0.681 µM) | 3.67 (≈ 10.4 µM) | 0.17 (≈ 0.483 µM) | 0.18 (≈ 0.511 µM) | 0.5 (≈ 1.42 µM) | 0.55 (≈ 1.56 µM) | 0.035 (≈ 0.0994 µM) | 0.63 (≈ 1.79 µM) | 0.5 (≈ 1.42 µM) | 0.08 (≈ 0.227 µM) | 0.03 (≈ 0.0852 µM) | 1080 | 0.007 (≈ 0.0199 µM) | 0.007 (≈ 0.0199 µM)
CC(C)=CCN1Cc2cc(Cl)cc3[nH]c(=S)n(c23)C[C@@H]1C [TIBO R82913, reference compound] | resistant | 1.1 (≈ 3.42 µM) | 0.5 (≈ 1.55 µM) | 2 (≈ 6.21 µM) | 0.3 (≈ 0.932 µM) | 1.75 (≈ 5.44 µM) | 4.3 (≈ 13.4 µM) | 5 (≈ 15.5 µM) | > 2.5 | ≥ 5 | – | 0.16 (≈ 0.497 µM) | 0.23 (≈ 0.715 µM) | 2050 | 0.016 (≈ 0.0497 µM) | 0.02 (≈ 0.0621 µM)
